Drawing on DBAASP, this text covers MIC for twelve compounds.

Values after ≈ are worked out from the molar mass of the structure shown.

Test in all cases: ≥ marks a high value that may be exact or a test limit, other limits are often not marked, values filed in µg/mL are converted to µM
In experiment [1] the test system is Staphylococcus aureus ATCC 25923.
Experiment [2] relates to Escherichia coli ATCC 25922.
Experiment [3] concerns Pseudomonas aeruginosa ATCC 27853.

As usually defined, the MIC is the smallest concentration in the dilution series that meets the test's criterion for growth inhibition. A high value points to a less susceptible organism. Turning to `CC(C)C[C@H](NC(=O)CN)C(=O)N[C@@H](Cc1ccccc1)C(=O)N[C@@H](CC(=O)O)C(=O)N[C@H](C(=O)N[C@H](C(=O)N[C@@H](CCCCN)C(=O)NCC(=O)N[C@H](C(=O)N[C@@H](CC(C)C)C(=O)N[C@@H](CCCCN)C(=O)NCC(=O)N[C@@H](C)C(=O)NCC(=O)N[C@@H](CCCCN)C(=O)N[C@@H](CC(N)=O)C(=O)N[C@H](C(=O)N[C@@H](C)C(=O)NCC(=O)N[C@@H](CO)C(=O)N[C@@H](CC(C)C)C(=O)N[C@@H](CC(C)C)C(=O)N[C@@H](CCC(=O)O)C(=O)N[C@@H](CCC(N)=O)C(=O)N[C@@H](CC(C)C)C(=O)N[C@@H](CCCCN)C(=O)N[C@H]1CSSC[C@@H](C(=O)O)NC(=O)CNC(=O)CNC(=O)[C@H](CO)NC(=O)[C@H](CC(C)C)NC(=O)[C@H](CCCCN)NC1=O)C(C)C)C(C)C)C(C)C)C(C)C` [GLFDVVKGVLKGAGKNVAGSLLEQLKCKLSGGC], the MIC in experiment [1] and in experiment [2] was 30 µM (≈ 98.6 µg/mL) each time.

Consider `CC(C)C[C@H](NC(=O)[C@H](CCCCN)NC(=O)[C@H](CCCCN)NC(=O)[C@H](C)NC(=O)[C@H](CC(C)C)NC(=O)[C@H](CCCCN)NC(=O)[C@H](C)NC(=O)[C@H](CC(C)C)NC(=O)[C@H](CCCCN)NC(=O)[C@H](CCCCN)NC(=O)[C@H](C)NC(=O)[C@H](CC(C)C)NC(=O)[C@H](CCCCN)NC(=O)[C@H](C)NC(=O)[C@H](CC(C)C)NC(=O)[C@H](CCCCN)NC(=O)[C@H](CCCCN)NC(=O)[C@H](C)NC(=O)[C@H](CC(C)C)NC(=O)[C@@H](N)CCCCN)C(=O)N[C@@H](C)C(N)=O` [KLAKKLAKLAKKLAKLAKKLA], for which the MIC in experiment [3], in experiment [1] and in experiment [2] was 4 µM (≈ 9.1 µg/mL) each time.

For `CC[C@H](C)[C@H](NC(=O)[C@H](CCCN=C(N)N)NC(=O)[C@H](CCCCN)NC(=O)[C@@H](N)CC(C)C)C(=O)N[C@@H](CCCCN)C(=O)N[C@H](C(=O)N[C@@H](CC(C)C)C(=O)N[C@@H](CC(C)C)C(N)=O)[C@@H](C)O` [LKRIKTLL], the MIC in experiment [1] and in experiment [2] was > 31.5 µM throughout.

In the case of `CC(C)C[C@H](NC(=O)[C@H](C)NC(=O)[C@@H](N)CO)C(=O)N[C@H](C(=O)NCC(=O)N[C@H]1CSSC[C@@H](C(=O)N[C@@H](Cc2ccccc2)C(=O)NCC(=O)N[C@@H](CCCN=C(N)N)C(=O)O)NC(=O)[C@@H]2CCCN2C(=O)[C@H](CCCCN)NC(=O)[C@@H]2CCCN2C(=O)[C@@H]2CCCN2C(=O)[C@H](Cc2c[nH]c3ccccc23)NC(=O)[C@H](CO)NC(=O)[C@H](CCCCN)NC(=O)[C@H]([C@@H](C)O)NC(=O)[C@H](Cc2c[nH]c3ccccc23)NC1=O)C(C)C` [SALVGCWTKSWPPKPCFGR], the MIC was determined as 11.8 µM (≈ 25 µg/mL) in experiment [1] and 23.6 µM (≈ 50 µg/mL) in experiment [2].

In the case of `CC[C@H](C)[C@H](NC(=O)[C@@H](NC(=O)[C@H](CCCCN)NC(=O)[C@H](CC(C)C)NC(=O)[C@H](CC(C)C)NC(=O)CN)C(C)C)C(=O)N[C@@H](CCCCN)C(=O)N[C@H](C(=O)N[C@@H](CC(C)C)C(=O)N[C@@H](CC(C)C)C(N)=O)C(C)C` [GLLKVIKVLL], the MIC in experiment [1] came out at 12.8 µM (≈ 14 µg/mL); in experiment [2], 25.6 µM (≈ 28 µg/mL).

For the compound `CC[C@H](C)[C@H](NC(=O)CNC(=O)[C@H](CCC(N)=O)NC(=O)CNC(=O)[C@H](Cc1c[nH]c2ccccc12)NC(=O)[C@H](CCCCN)NC(=O)[C@H](CCC(=O)O)NC(=O)[C@@H](NC(=O)[C@H](CCCCN)NC(=O)[C@H](CCCCN)NC(=O)[C@H](Cc1c[nH]c2ccccc12)NC(=O)[C@H](CC(C)C)NC(=O)[C@H](CCCCN)NC(=O)[C@H](Cc1c[nH]c2ccccc12)NC(=O)[C@@H](N)CCCCN)[C@@H](C)CC)C(=O)NCC(=O)N[C@@H](C)C(=O)N[C@H](C(=O)N[C@@H](CC(C)C)C(=O)N[C@@H](CCCCN)C(=O)N[C@@H](Cc1c[nH]c2ccccc12)C(=O)N[C@@H](CC(C)C)C(=O)N[C@H](C(=O)N[C@H](C(=O)N[C@@H](Cc1c[nH]c2ccccc12)C(=O)N[C@@H](CC(C)C)C(=O)O)[C@@H](C)O)[C@@H](C)O)C(C)C` [KWKLWKKIEKWGQGIGAVLKWLTTWL], the MIC in experiment [3] came to 32 µM (≈ 102 µg/mL).

Consider `CC[C@H](C)[C@H](NC(=O)[C@H](CCC(N)=O)NC(=O)[C@H](CCCCN)NC(=O)[C@@H](NC(=O)[C@H](CC(C)C)NC(=O)[C@H](CCC(N)=O)NC(=O)[C@H](C)NC(=O)[C@H](Cc1ccccc1)NC(=O)[C@@H](NC(=O)[C@H](CC(=O)O)NC(=O)[C@H](CCCCN)NC(=O)CNC(=O)[C@@H](NC(=O)CNC(=O)[C@@H](NC(=O)[C@@H](NC(=O)[C@H](Cc1ccccc1)NC(=O)[C@H](CC(=O)O)NC(=O)[C@H](CC(C)C)NC(=O)[C@H](CC(C)C)NC(=O)CN)C(C)C)[C@@H](C)O)C(C)C)[C@@H](C)CC)[C@@H](C)CC)C(N)=O` [GLLDFVTGVGKDIFAQLIKQI], for which the MIC in experiment [1] and in experiment [2] was 64 µM (≈ 146 µg/mL) in each case.

For the compound `CC[C@H](C)[C@H](NC(=O)[C@@H](NC(=O)[C@H](CCCCN)NC(=O)[C@H](CC(C)C)NC(=O)[C@H](CC(C)C)NC(=O)[C@@H](N)CCCCN)C(C)C)C(=O)N[C@@H](CCCCN)C(=O)N[C@@H](CCCCN)C(=O)N[C@@H](CC(C)C)C(=O)N[C@@H](CC(C)C)C(N)=O` [KLLKVIKKLL], the values for the MIC in experiment [1] and in experiment [2] were 7.53 µM (≈ 8.99 µg/mL) and 5.02 µM (≈ 6 µg/mL), respectively.

`CC(C)C[C@H](NC(=O)[C@H](Cc1ccccc1)NC(=O)[C@@H]1CCCN1C(=O)[C@H](Cc1c[nH]c2ccccc12)NC(=O)[C@H](C)NC(=O)[C@H](Cc1c[nH]c2ccccc12)NC(=O)[C@@H]1CCCN1C(=O)[C@H](Cc1ccccc1)NC(=O)[C@H](CCCN=C(N)N)NC(=O)[C@H](CCCN=C(N)N)NC(=O)[C@@H](N)C(C)C)C(=O)N[C@@H](CCCN=C(N)N)C(=O)N[C@@H](CCCN=C(N)N)C(N)=O` [VRRFPWAWPFLRR] yielded an MIC in experiment [2] of 16 µM (≈ 28.6 µg/mL).

For `CC[C@H](C)[C@H](NC(=O)[C@H](Cc1ccc(O)cc1)NC(=O)[C@H](CCC(N)=O)NC(=O)[C@H](CC(C)C)NC(=O)[C@H](C)N)C(=O)N[C@@H](CCCCN)C(=O)N[C@@H](CC(C)C)C(=O)N[C@@H](CC(C)C)C(=O)N[C@@H](CCCCN)C(=O)N[C@@H](CCC(=O)O)C(N)=O` [ALQYIKLLKE], the MIC in experiment [3] and in experiment [2] was > 100 µM throughout.

For `CC[C@H](C)[C@H](NC(=O)[C@@H](NC(=O)[C@H](CC(N)=O)NC(=O)[C@H](CC(C)C)NC(=O)[C@H](CC(C)C)NC(=O)CN)C(C)C)C(=O)N[C@@H](CCCCN)C(=O)N[C@@H](CC(=O)O)C(=O)N[C@H](C(=O)N[C@@H](C)C(=O)N[C@@H](CCC(N)=O)C(=O)N[C@@H](CC(N)=O)C(=O)N[C@@H](CC(C)C)C(=O)N[C@@H](Cc1ccccc1)C(=O)N[C@@H](C)C(=O)N[C@@H](C)C(=O)N[C@@H](C)C(=O)N[C@@H](CC(C)C)C(=O)N[C@@H](CC(=O)O)C(=O)N[C@@H](CCCCN)C(=O)N[C@@H](CC(C)C)C(=O)N[C@@H](CCCCN)C(=O)N[C@H]1CSSC[C@@H](C(=O)N[C@@H](CC(N)=O)C(=O)O)NC(=O)[C@H](CCCCN)NC(=O)[C@H]([C@@H](C)O)NC(=O)[C@H](C(C)C)NC(=O)[C@H](CCCCN)NC1=O)[C@@H](C)O` [GLLNVIKDTAQNLFAAALDKLKCKVTKCN], the MIC in experiment [1] is > 160 µM; in experiment [2], 80 µM (≈ 251 µg/mL).

With `CC(C)C[C@H](NC(=O)[C@H](C)NC(=O)[C@@H](N)CO)C(=O)N[C@H](C(=O)NCC(=O)N[C@H]1CSSC[C@@H](C(=O)N[C@@H](Cc2ccccc2)C(=O)NCC(=O)N[C@@H](CCCN=C(N)N)C(=O)NCC(=O)O)NC(=O)[C@@H]2CCCN2C(=O)[C@H](CCCCN)NC(=O)[C@@H]2CCCN2C(=O)[C@@H]2CCCN2C(=O)[C@H](Cc2c[nH]c3ccccc23)NC(=O)[C@H](CO)NC(=O)[C@H](CCCCN)NC(=O)[C@H]([C@@H](C)O)NC(=O)[C@H](Cc2c[nH]c3ccccc23)NC1=O)C(C)C` [SALVGCWTKSWPPKPCFGRG], the MIC in experiment [1] came to 23 µM (≈ 50 µg/mL).
